Assay results: patent US11879848B2, “Graphene-based multi-modal sensors” (The Regents of the University of California, priority 2015, dated 2024)

Tested on: neonatal rat cardiomyocytes (CM)
Experiment: cardiomyocyte contractions registered by PMMA/AuNI/graphene strain sensor in electrophysiological chamber
Type: cell-based
Details: 10 μM blebbistatin in the solution around the cells; CM culture on PMMA/AuNI/graphene; room temperature
Protocol: The graphene/metal nanoisland composite film structures can also be deployed in biological settings. For example, the performance of graphene/AuNI sensors in biological settings is tested by culturing neonatal rat cardiomyocytes (CM) on coverslips that are coated with a composite polymethylmethacrylate (PMMA)/AuNI/graphene film structure.
Using a specialized chamber shown in FIG. 4c and detailed below, reversible changes in the sensor signal that correlated with the spontaneous activity of cardiomyocytes can be detected, as shown in FIG. 4d.
An excitation-contraction uncoupler such as blebbistatin, that inhibits myosin cycling and stops the contractions of the cells, but not the electrical activity, can be used to distinguish whether the signal detected by the strain sensor was related to the contractile or electrical activity of the cells.
Electrophysiology. Neonatal rat ventricular cardiomyocytes were isolated using the neonatal rat cardiomyocyte isolation kit (Worthington) and cultured at 37° C. with 5% CO2. In brief, ventricles were dissected from 1 d-old Hsd:SD rats (Sprague Dawley), then digested overnight at 4° C. with trypsin. Digestion continued the following morning with collagenase for approximately 60 min at 37° C. […]

Cc1ccc2c(c1)C(=O)C1(O)CCN(c3ccccc3)C1=N2 (stereo not shown) [blebbistatin]
modulations of the sensor signal (contractions of the cells): No noticeable modulations of the signal
